System: Human glioma U87-luc cells
Experiment: In vivo efficacy in U87 orthotopic xenograft model (bioluminescence imaging)
Design: species or system BALB/c nude mice
Conditions: for Bioluminescence Signal (photons/sec), Mean: 30 mg/kg, PO, QD, U87-luc orthotopic
Description: V. In Vivo Efficacy of Compounds of the Present Disclosure in U87 Orthotopic Xenograft Models
Cell Culture: Human glioma U87-luc cells (Caliper-124577) were cultured as monolayers in vitro. The cells were maintained in EMEM supplemented with 10% fetal bovine serum (FBS), 100 U/mL penicillin, and 100 µg/mL streptomycin in an incubator at 37°C with 5% CO2. Routine subculturing was performed twice weekly using trypsin-EDTA. When the cells reached 80-90% confluence and the required cell number was achieved, the cells were harvested, counted, and prepared for inoculation.
Animals: Female BALB/c nude mice, weighing 18-20 g. A total of 50 mice were obtained (target study size of 24 mice, with an […]). The animals were provided by Beijing Vital River Laboratory Animal Technology Co., Ltd.
Tumor Inoculation: Prior to cell inoculation, each nude mouse was anesthetized via intraperitoneal injection of 1.25% avertin at a dose of 20 µL/g. The anesthetized mouse was fixed onto a stereotaxic instrument. The scalp was disinfected with 70% ethanol and covered with a sterile drape. A midline longitudinal incision (approximately 1 cm) was made to expose the skull. A small hole was drilled using a cranial drill at the coordinates 2 mm right and 0.5 mm anterior to the bregma. Using a microsyringe, 3 µL of U87-luc cell suspension (3.0×10^5 cells in PBS containing 20% Matrigel) was injected into the hole at a depth of 3.5 mm from the skull surface. The burr hole was sealed with tissue adhesive (or bone wax), the incision was sutured, and the skin was disinfected with povidone-iodine solution. The animals were kept warm on a heating pad during the recovery period and monitored until fully awake before being returned to their cages.
Analgesia: For analgesia, Meloxicam (3 mg/kg) was injected subcutaneously 30 minutes prior to surgery and 24 hours post-surgery.
Bioluminescence Imaging: Mice were weighed and administered D-luciferin (150 mg/kg) via intraperitoneal injection. Ten minutes post-injection, the mice were anesthetized using a mixture of oxygen and isoflurane. Once fully anesthetized, the animals were transferred to the IVIS Lumina III in vivo imaging system for detection. Bioluminescence measurements were acquired for all mice at 13 minutes post-injection. Whole-body bioluminescence, including metastatic tumors, was measured and images were captured. Imaging was performed on Day 7 post-inoculation and weekly thereafter following grouping and dosing (5 time points in total). The data are presented as bioluminescence signal values.
Animal Grouping: Seven days after cell inoculation, 24 mice were selected from the total of 50 mice based on their bioluminescence values. Using an Excel-based stratified randomization procedure, the mice were divided into 3 groups (8 mice per group): the Vehicle group, the 15 mg/kg BID group, and the 30 mg/kg QD group.
Experimental Endpoint: The experimental endpoint is animal survival.
Monitoring and Data Analysis: Animals were monitored daily, and the time of death was recorded. […] If an animal's health deteriorated or it became moribund (characterized by significant weight loss >20%, inability to eat or drink normally, difficulty moving, or paralysis), it was considered a mortality event and immediately euthanized via CO2 inhalation.
The Median Survival Time (MST, days) was calculated for each group. The Increase in Life-Span (ILS) was calculated by comparing the MST of the treatment group to that of the model control group, expressed as a percentage increase over the control group. The calculation is as follows: ILS(%) = (MSTt−MSTv)/MSTv × 100 [formula] Where: • MSTt: Median Survival Time of the treatment group • MSTv: Median Survival Time of the Vehicle group
Tumor Growth Monitoring: Bioluminescence signal intensity was used to monitor intracranial tumor growth. Bioluminescence imaging was performed once or twice weekly. […]

CN(C(=O)c1ccc2nc(N)c3cncn3c2c1)[C@@H]1COc2cc(C(F)(F)F)ccc21 [Example 107, (S)-4-amino-N-methy 1-N-(6-(trifluoromethy 1)-2,3-dihydrobenzofuran-3-yl)imidazo[1,5-a]quinoxaline-8-carboxamide]
Tumor Growth Inhibition (TGI) rate (30 mg/kg once daily (QD) for 28 days, U87MG orthotopic mouse xenograft): exceeding 100% | Bioluminescence Signal (photons/sec), Mean (day 0): 5.837E+06 photons/sec | Bioluminescence Signal (photons/sec), Mean (day 7): 1.419E+06 photons/sec | Bioluminescence Signal (photons/sec), Mean (day 14): 1.930E+06 photons/sec | Bioluminescence Signal (photons/sec), Mean (day 21): 1.968E+06 photons/sec | Bioluminescence Signal (photons/sec), Mean (day 28): 2.412E+06 photons/sec

— patent EP4775208A1, “USE OF PRMT5 INHIBITOR IN TREATMENT OF TUMORS OR CANCERS” (Apeiron Therapeutics (Hong Kong) Ltd., priority 2023, dated 2025)
